According to patent US20100210564A1, “DRUG OR FOOD CONTAINING A PEPTIDE” (Kyoto University, priority 2009, published 2010):
Entries after “also recorded” stand apart in the source; their conditions may differ.

Experiments:
mice [1] = assay: Elevated plus-maze test, YL in combination with antagonists for various receptors; format: in vivo, mouse; details: in words
Excerpt: (§1) The elevated plus-maze (EPM) consisted of two open arms (25×5 cm) and two closed arms (25×5×15 cm), which were joined to a central platform 50 cm high above the floor (see FIG. 1). Because the closed arms were surrounded by fences, a mouse could safely walk in the closed arms irrespective of their elevated position. On the other hand, because the open arms were not surrounded by fences, a mouse walking along the open arms would feel anxious that it might fall down from the elevated position. Therefore, the more time the mouse spent in the open arms, or the greater the number of entries to the open arms, the less anxious the mouse was feeling; thus, the anxiolytic activity was determined based on these indices.
(§2) A mouse was placed on a portion of the central platform facing one of the open arms, and the test was started. During a test time of 5 minutes, the cumulative time spent in the open arms (abbr.: time in open arms), the number of visits to the open arms (abbr.: visit to open arms), and the total number of visits to any of the arms (abbr.: total visits) were recorded. The percentage of the time spent in the open arms and the percentage of the number of visits to the open arms were calculated as indices of anxiety.

mice [2] = assay: Elevated plus-maze test, anxiolytic effects; format: in vivo, mouse; details: for Minimum Effective Dose (mg/kg, i.p.): elevated plus-maze, ( ) = showed tendency, — = no anxiolytic effects
Description: In the present invention, the anxiolytic effects can be evaluated by the elevated plus-maze test, developed and widely used as a method for evaluating anxiety-related behaviors to screen anxiolytic drugs (FIG. 1). Specifically, the test is performed as follows: a candidate substance for an anxiolytic drug is orally or intraperitoneally administered to a mouse; 30 minutes after the administration, the mouse is placed in an elevated plus-maze; and the potency of the anxiolytic effects is evaluated based on the number of entries to the open arms and a change in the times spent on the open arms.
as §1, §2
The data obtained from the elevated plus-maze test were represented as the means±SEM. The data were analyzed by 1-way or 2-way ANOVA, followed by the Fisher test for multiple comparisons.
(§3) Each of YL (Example 1 and Comparative Example 3), FL (Example 2), YI (Example 3), FI (Example 4), LY (Example 5), LF (Example 6), IY (Example 7), IF (Example 8), YLY (Example 9), YLQ (Example 10), LYL (Example 11), YLYEIAR (Example 12), YV (Example 13), WL (Example 14), LW (Example 15), HL (Example 16), Y (Comparative Example 1), and Y, L (Comparative Example 2) dissolved in physiological saline was administered intraperitoneally (i.p.) or orally (p.o.) to mice (n=3 to 14) in the amounts shown in each figure before the mice were placed in the elevated plus-maze. The percentage of the time spent in the open arms, the percentage of the number of visits to the open arms, and the total number of visits to the arms (total visits) were compared among groups administered each peptide or amino acid, and a control group (0 mg/kg). YL was investigated for its anxiolytic effects by the open-field test. The results are shown in FIGS. 2 to 14, FIGS. 22 to 27, and Table 3.

mice [3] = assay: Open-field test; format: in vivo, mouse
Description: The open-field used in this experiment was a cylindrical gray apparatus with a diameter of 60 cm and a height of 50 cm, which is divided into 25 sections with black lines. […] However, once a mouse is administered an anxiolytic drug, the time spent in the circle at the center and the number of entries thereto increase.
as §3

ACE = ACE (Homo sapiens, UniProt P12821); assay: ACE inhibitory effects; format: biochemical; details: comparison of YL with IY
Chain of ACE (P12821 30-1306, species assumed): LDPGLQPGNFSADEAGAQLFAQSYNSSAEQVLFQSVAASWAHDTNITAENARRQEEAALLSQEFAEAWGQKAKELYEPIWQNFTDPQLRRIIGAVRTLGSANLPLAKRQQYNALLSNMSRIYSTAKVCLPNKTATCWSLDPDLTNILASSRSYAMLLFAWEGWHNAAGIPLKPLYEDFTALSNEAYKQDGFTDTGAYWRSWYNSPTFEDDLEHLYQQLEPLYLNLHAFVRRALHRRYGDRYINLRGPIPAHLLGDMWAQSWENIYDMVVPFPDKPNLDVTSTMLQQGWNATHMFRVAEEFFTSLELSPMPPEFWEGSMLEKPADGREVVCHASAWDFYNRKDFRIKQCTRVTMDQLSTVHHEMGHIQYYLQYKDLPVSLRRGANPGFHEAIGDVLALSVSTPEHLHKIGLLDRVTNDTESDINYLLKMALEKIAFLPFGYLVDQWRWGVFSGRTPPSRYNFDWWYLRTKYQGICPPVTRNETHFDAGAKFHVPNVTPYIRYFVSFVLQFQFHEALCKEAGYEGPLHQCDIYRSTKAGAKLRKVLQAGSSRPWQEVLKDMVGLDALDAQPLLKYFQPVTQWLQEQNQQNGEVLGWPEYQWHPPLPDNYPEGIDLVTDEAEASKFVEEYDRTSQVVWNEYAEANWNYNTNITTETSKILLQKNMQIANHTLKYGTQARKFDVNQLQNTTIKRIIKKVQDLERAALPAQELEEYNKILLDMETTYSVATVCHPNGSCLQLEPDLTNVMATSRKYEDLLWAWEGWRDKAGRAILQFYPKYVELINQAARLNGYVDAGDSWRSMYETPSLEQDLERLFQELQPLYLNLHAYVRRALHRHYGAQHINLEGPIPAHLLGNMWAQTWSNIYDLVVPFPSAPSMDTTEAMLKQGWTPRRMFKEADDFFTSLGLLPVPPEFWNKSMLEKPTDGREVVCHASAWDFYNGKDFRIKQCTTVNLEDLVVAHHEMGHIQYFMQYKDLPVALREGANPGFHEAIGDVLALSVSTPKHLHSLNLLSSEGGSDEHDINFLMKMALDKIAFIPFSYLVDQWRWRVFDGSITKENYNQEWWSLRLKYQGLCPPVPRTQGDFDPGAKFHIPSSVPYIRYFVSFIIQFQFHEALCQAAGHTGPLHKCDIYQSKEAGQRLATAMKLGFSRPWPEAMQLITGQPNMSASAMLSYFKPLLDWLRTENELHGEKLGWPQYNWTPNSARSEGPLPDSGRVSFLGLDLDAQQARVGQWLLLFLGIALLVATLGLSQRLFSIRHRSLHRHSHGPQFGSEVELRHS

[4] = 0.1 mg/kg, i.p., mean ± SEM (n = 6), p < 0.05 vs cont.

Compound | effect of the antagonist/inhibitor on the anxiolytic effects of the peptides of the invention (mice [1]) | Minimum Effective Dose (mg/kg, i.p.) (mice [2]) | further results
OC(CCCN1CCN(c2ncc(F)cn2)CC1)c1ccc(F)cc1 (stereo not shown) [BMY14802] | not blocked |  | 
CC(C)C[C@H](N)C(=O)O [L, Leu, reference compound] |  |  | anxiolytic effects in the elevated plus-maze experiment (in words) (mice [2]): no anxiolytic effects
COc1ccccc1N1CCN(CC(C(=O)NC(C)(C)C)c2ccccc2)CC1 (stereo not shown) [WAY100135] | blocked |  | 
N[C@@H](Cc1ccc(O)cc1)C(=O)O [Y, Tyr, reference compound] |  |  | anxiolytic effects in the elevated plus-maze experiment (in words) (mice [2]): no anxiolytic effects
CCOC(=O)c1ncn2c1CN(C)C(=O)c1cc(F)ccc1-2 [flumazenil] | significantly blocked |  | 
COc1ccc2c(c1)c(CC(=O)O)c(C)n2C(=O)c1ccc(Cl)cc1 [indomethacin] | not blocked |  | 
C=CCN1CC[C@]23c4c5ccc(O)c4O[C@H]2C(=O)CC[C@@]3(O)[C@H]1C5 [naloxone] | not blocked |  | 
Oc1ccc2c3c1O[C@H]1c4[nH]c5ccccc5c4C[C@@]4(O)[C@@H](C2)N(CC2CC2)CC[C@]314 [naltrindole] | not blocked |  | 
His-Leu [HL] |  | 0.1 mg/kg | 
Ile-Tyr [IY] |  | 10 mg/kg | 
Phe-Leu [FL] |  | 0.1 mg/kg | 
Trp-Leu [WL] |  | 0.1 mg/kg | 
Tyr-Leu [YL] |  | 0.1 mg/kg | Time in Center Circle (%) (mice [3]; [4]): 2.06 ± 0.234 %; Visits to Center Circle (%) (mice [3]; [4]): 3.02 ± 0.404 %; efficacy in the open-field test (in words) (mice [3]; mice): demonstrated its efficacy; ACE inhibitory effects (ACE): weaker than those of IY; anxiolytic effects in the elevated plus-maze experiment (in words) (mice [2]): stronger anxiolytic effects; also recorded: at least equivalent to those of diazepam
YLYEIAR [peptide; Y Tyr, L Leu, E Glu, I Ile, A Ala, R Arg] |  | 0.3 mg/kg | 
